Data set [1] deals with T1, Protein cereblon/NAD-dependent protein deacylase sirtuin-6 (Homo sapiens, UniProt Q8N6T7+Q96SW2). The data set can be described thus: PROTAC activity at CRBN/SIRT6 in human SK-HEP1 cells assessed as induction of SIRT6 degradation at 0.02 to 5 uM incubated for 36 hrs by Western blot analysis. Type of data set: cell-based. The following applies: dose 0.02-5 µM.
In data set [2] the target is T1, Protein cereblon/NAD-dependent protein deacylase sirtuin-6. Kind of data set: PROTAC activity at CRBN/SIRT6 in human Huh-7 cells assessed as induction of SIRT6 degradation at 1 uM incubated for 24 hrs by Western blot analysis. Type of data set: cell-based.
Data set [3] shares this target. Kind of data set: PROTAC activity at CRBN/SIRT6 in pomalidomide-treated human SK-HEP1 cells assessed as induction of SIRT6 degradation at 2.5 uM treated for 36 hrs by Western blot analysis. The class given is cell-based.
Data set [4] has as its system SK-HEP1. The data set can be described thus: Induction of apoptosis in human SK-HEP1 cells at 2.5 uM preincubated for 36 hrs followed by irradiation (3 Gy) by Annexin V-FITC/PI staining based flow cytometry. The class given is functional, cell-based.
In data set [5] the test system is SK-HEP1. Kind of data set: Effect of SIRT6 mRNA expression in human SK-HEP1 cells at 2.5 uM incubated for 36 hrs by RNA sequencing analysis. Type of data set: functional, cell-based.
The test system of data set [6] is SK-HEP1. Kind of data set: Effect of genes related to protein heterodimerization in human SK-HEP1 cells at 2.5 uM incubated for 36 hrs by GSEA analysis. Type of data set: functional, cell-based.
Data set [7] deals with SK-HEP1. The data set can be described thus: Downregulation of CCPG1 expression in human SK-HEP1 cells at 2.5 uM incubated for 36 hrs. Type of data set: functional, cell-based.
For data set [8], the system named is SK-HEP1. The data set can be described thus: Downregulation of ALDOB expression in human SK-HEP1 cells at 2.5 uM incubated for 36 hrs. Type of data set: functional, cell-based.
Data set [9] relates to SK-HEP1. The data set can be described thus: Downregulation of NAIF1 expression in human SK-HEP1 cells at 2.5 uM incubated for 36 hrs in presence of MG132. Type of data set: functional, cell-based.
Data set [10] concerns SK-HEP1. The data set can be described thus: Downregulation of NAIF1 expression in human SK-HEP1 cells at 2.5 uM incubated for 36 hrs in presence of MLN4924. Type of data set: functional, cell-based.
The target of data set [11] is T1, Protein cereblon/NAD-dependent protein deacylase sirtuin-6. The data set can be described thus: PROTAC activity at CRBN/SIRT6 in human SK-HEP1 cells assessed as impairment in gamma-H2AX foci formation by immunofluorescence based analysis. Type of data set: cell-based.
For data set [12] the target is unchanged. The data set can be described thus: PROTAC activity at CRBN/SIRT6 in human U2OS cells expressing EJ5 assessed as inhibition of SNF2H loading onto chromatin incubated for 36 hrs by FACS analysis. Type of data set: cell-based.
In data set [13] the test system is SK-HEP1. The data set can be described thus: Synergistic antitumor activity against human SK-HEP1 cells xenografted in BALB/c nude mouse at 10 mg/kg treated for 28 to 30 days in presence of sorafenib relative to control. The class given is functional. The following applies: time 28-30 day.
The target in data set [14] is T1, Protein cereblon/NAD-dependent protein deacylase sirtuin-6. The data set can be described thus: In vivo PROTAC activity of CRBN/SIRT6 in human SK-HEP1 cells xenografted in BALB/c nude mouse assessed as induction of SIRT6 degradation at 10 mg/kg treated for 28 to 30 days under irradiation (3 Gy). Type of data set: functional, organism-based. The following applies: time 28-30 day.

Data set [15] is described as follows: Toxicity in BALB/c nude mouse xenografted with human SK-HEP1 cells assessed as histopathological abnormalities in heart at 10 mg/kg treated for 28 to 30 days by H and E staining based analysis. The following applies: in vivo, time 28-30 day. Type of data set: organism-based.
Data set [16] concerns SK-HEP1. The data set can be described thus: Inhibition of cell proliferation of human SK-HEP1 cells xenografted in BALB/c nude mouse at 10 mg/kg treated for 28 to 30 days under irradiation (3 Gy). Type of data set: functional, organism-based. The following applies: time 28-30 day.

Active and inactive are the calls of the source. The rule behind the calls is not given here.

T1 sequence (Q8N6T7 2-355 limits assumed): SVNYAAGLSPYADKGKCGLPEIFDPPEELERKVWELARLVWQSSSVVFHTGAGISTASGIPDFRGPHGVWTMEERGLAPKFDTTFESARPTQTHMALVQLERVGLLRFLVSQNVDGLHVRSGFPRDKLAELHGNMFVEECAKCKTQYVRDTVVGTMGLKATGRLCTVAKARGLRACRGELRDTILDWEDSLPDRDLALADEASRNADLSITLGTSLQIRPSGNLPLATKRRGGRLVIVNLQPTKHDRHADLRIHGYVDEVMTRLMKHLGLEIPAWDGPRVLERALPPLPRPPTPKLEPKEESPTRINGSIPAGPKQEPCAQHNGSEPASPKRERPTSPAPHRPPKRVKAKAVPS
T1 sequence (Q96SW2 whole entry partner): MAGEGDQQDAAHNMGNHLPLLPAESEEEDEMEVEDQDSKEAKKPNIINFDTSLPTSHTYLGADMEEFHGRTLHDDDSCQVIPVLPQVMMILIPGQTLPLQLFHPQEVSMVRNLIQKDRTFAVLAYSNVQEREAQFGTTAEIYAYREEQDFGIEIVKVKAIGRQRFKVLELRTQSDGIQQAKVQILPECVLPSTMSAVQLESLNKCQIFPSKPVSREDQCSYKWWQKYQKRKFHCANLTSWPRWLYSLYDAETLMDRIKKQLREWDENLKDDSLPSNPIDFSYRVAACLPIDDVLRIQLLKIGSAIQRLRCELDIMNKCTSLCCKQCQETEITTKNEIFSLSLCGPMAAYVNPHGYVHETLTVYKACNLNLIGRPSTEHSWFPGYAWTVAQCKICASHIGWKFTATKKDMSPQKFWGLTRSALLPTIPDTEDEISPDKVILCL

As to `Nc1cc(N2CCN(CC3CCN(c4cc5c(cc4F)C(=O)N(C4CCC(=O)NC4=O)C5=O)CC3)CC2)ccc1[N+](=O)[O-]` (stereo unspecified), the outcome in data set [1], in data set [6], in [7], in [8], in [11] and in data set [14] was Active. The Activity entry was “Active; Reached A Plateau After 36 Hrs Of Treatment” in [2], “Active; Significant Effect Was Observed Before Being Exposed To Ir” in data set [4], “No effect; The Mrna Level Did Not Markedly Change” in [5] and “Non-toxic” in data set [15]. The result in [3], in [9] and in [10] was inactive. Also, in [12], the inhibition result was “Active; Results In Decrease In Hr And Nhej Efficiencies”. Also, in [13], the T/C is listed as 18.2%. Moreover, the inhibition entry in [16] is “Active”.
